Results on seven molecules are retold here after patent publication US9068080B2, “Merocyanine derivatives” (BASF SE, priority 2006, dated 2015).

The series in a line: UV absorption spectrum (λmax, ε) of the merocyanine UV filters. Format: physicochemical.

Each structure is given as a SMILES string.

Turning to `CCOC(=O)/C(C#N)=C1/C=C(NCCC[Si]2(C)O[Si](C)(CCCNC3=C/C(=C(\C#N)C(=O)OCC)CC(C)(C)C3)O[Si](C)(CCCNC3=C/C(=C(\C#N)C(=O)OCC)CC(C)(C)C3)O[Si](C)(CCCNC3=C/C(=C(\C#N)C(=O)OCC)CC(C)(C)C3)O2)CC(C)(C)C1` (stereo not shown) [MC 11], where the note is “in EtOH”, the “UV λmax” value was found to be 388 nm and the “ε (molar extinction at λmax)” value was 181817.

Turning to `CN(/C=C/C=C(C#N)C#N)CCC[Si]1(C)O[Si](C)(CCCN(C)/C=C/C=C(C#N)C#N)O[Si](C)(CCCN(C)/C=C/C=C(C#N)C#N)O[Si](C)(CCCN(C)/C=C/C=C(C#N)C#N)O1` (stereo not shown) [MC 15], the “UV λmax” value (in CH3CN/H2O) was determined as 378 nm. With `CCOC(=O)/C(C#N)=C\C=C\N(C)CCC[Si]1(C)O[Si](C)(CCCN(C)/C=C/C=C(/C#N)C(=O)OCC)O[Si](C)(CCCN(C)/C=C/C=C(/C#N)C(=O)OCC)O[Si](C)(CCCN(C)/C=C/C=C(/C#N)C(=O)OCC)O1` (stereo not shown) [MC 12], the “UV λmax” value (in CH3CN/H2O) is recorded as 381 nm.

For `CCOC(=O)/C(C#N)=C1\C=C(NCCC[Si](C)(O[Si](C)(C)C)O[Si](C)(C)C)CC(C)(C)C1` [MC 08], for the setting “in EtOH”, the “UV λmax” value was determined as 388 nm and the “ε (molar extinction at λmax)” value worked out at 50383. Take `CCOC(=O)/C(C#N)=C\C=C\N(C)CCC[Si](C)(O[Si](C)(C)C)O[Si](C)(C)C` [MC 13]: the “UV λmax” value (in CH3CN/H2O) amounted to 381 nm. For the same molecule, for the setting “in EtOH”, the “UV λmax” value is 380 nm and the “ε (molar extinction at λmax)” value amounted to 69116. On to `CC1(C)CC(NCCC[Si](C)(O[Si](C)(C)C)O[Si](C)(C)C)=CC(=C(C#N)C#N)C1` [MC 07], for which the “UV λmax” value is on record as 382 nm (in CH3CN/H2O) and 381 nm (in EtOH). The “ε (molar extinction at λmax)” value (in EtOH) came to 52829. On to `CN(/C=C/C=C(C#N)C#N)CCC[Si](C)(O[Si](C)(C)C)O[Si](C)(C)C` [MC 14], for which the “UV λmax” value (in CH3CN/H2O) came to 383 nm.
